Data from patent publication US8546095B2, “Methods for determination of calcineurin activity and uses in predicting therapeutic outcomes” (Emory University, priority 2007, dated 2013).
Entries after “also recorded” stand apart in the source; their conditions may differ.

What was measured:
recombinant calcineurin = target: T1, recombinant calcineurin (Homo sapiens, UniProt Q08209); assay: Fluorimetric calcineurin assay with recombinant calcineurin and standard controls; format: biochemical; conditions: 0.2 ng recombinant calcineurin, ANOVA
T1 construct: purchased Calbiochem (San Diego, Calif.)
Method: Reactions using 0.2 ng of recombinant calcineurin along with standard controls for calcineurin activity, including heat inactivation of the recombinant enzyme, addition of an autoinhibitory peptide, absence of calcium, and chelation of calcium with EGTA were investigated.
Recombinant calcineurin was from Calbiochem (San Diego, Calif.), and all other chemicals were obtained from Sigma (St Louis, Mo.). The RII peptide, Fluoresceinyl-[…]frican-AmericanE, and its phosphorylated analog (Fluoresceinyl-[…]pSVAfrican-AmericanE where pS=L-phosphoserine) were synthesized by Fmoc-based solid-phase peptide synthesis using model Liberty microwave-assisted peptide synthesizer (CEM Corporation, Matthews, N.C.). The peptides were purified to apparent homogeneity by reversed-phase HPLC and their masses were confirmed by mass spectrometry. Peptides were diluted in: Tris 50 mM, 100 mM NaCl, 0.5 mM DTT, and 0.1 mg/ml bovine serum albumen to a final concentration of 30 ng/ml. Reaction buffer consisted of 0.1 mg/ml BSA, 35 mM Tris pH 7.5, 25 mM NaCl, 2.0 mM MgCl2, 270 μM DTT, 500 μM EDTA, 419 nM Okadaic acid (in 0.63% ethanol), 25 mM CaCl2. Titanium oxide plates were pre-incubated with a binding buffer consisting of 0.1% acetic acid in 10% acetonitrile. […]

calcineurin [1] = assay: Fluorimetric calcineurin assay in isolated PBMCs (PMA or anti-CD3 stimulation, in vitro calcineurin inhibitors); format: cell-based, human
Method: It was also shown that the fold change in calcineurin activity in response to anti-CD3 was sensitive to tacrolimus inhibition. Thus, PBMCs from control subjects were incubated with increasing amounts of tacrolimus before the anti-CD3 stimulation and the calcineurin activity was then measured.
It was further determined whether in vitro addition of calcineurin inhibitors could further inhibit calcineurin activity in samples from transplant subjects.
(i) Collection of samples. Heparinized blood can be obtained by routine phlebotomy and PBMC isolated and frozen in 10% DMSO. Samples will be thawed and viability confirmed prior to treatment.
(ii) Treatment of T cells. Three parameters of calcineurin activity: 1) base-line levels of the enzyme; 2) the increase in calcineurin in response to general stimuli; and, 3) the response of calcineurin to T cell receptor specific activation.
PBMCs were thawed, viable cells counted and then separated into aliquots of about 2×10^5 cells. Based on preliminary experiments, samples were treated with anti-CD3 (Muromonab, 10 μg/ml) antibodies for 15 mins at 37° C. Based on preliminary dose and time curves, PMA was added to aliquots for 5 mins. Control samples were included with either no treatment or adjuvant-only (DMSO). These manipulations yielded base-line activity, maximum non-specific activation, and TCR-stimulated activity.
(iii) 20 μl diluted peptide substrate, 20 μl of reaction buffer, and 20 μl of sample were loaded into individual wells of a 96-well plate and incubated at 30° C. for 10 minutes. During the reaction time, a 96-well plate with titanium oxide-coated wells was prepared by adding 50 μl binding buffer (0.1% acetic acid in 10% acetonitrile) per well. After the incubation period, reactions were transferred into prepared titanium oxide-coated wells following by gentle shaking for 5 minutes. The contents of each well were then removed to a white 96-well plate preloaded with 20 μl of 3N ammonium hydroxide.

calcineurin [2] = assay: Fluorimetric calcineurin assay in cultured primary renal fibroblasts
Method: FIG. 16A: Cultured renal fibroblasts were treated with a variety of stimuli including arginine vasopressin (AVP), dexamethasone, and phorbol myristate acetate (PMA) to induce calcineurin activity. In addition, some cells were pre-treated with calcineurin inhibitors prior to the addition of PMA. Cells were lysed according to previously established methods and then calcineurin activity was determined. Data shown is the mean+/−SEM of triplicate samples compared to a standard curve. […] Tissues were lysed according to previously established methods and calcineurin activity determined. Data shown are the mean+/−SEM of triplicate samples compared to a standard curve.
When the absorbance values obtained were compared to a standard curve of recombinant calcineurin run simultaneously, a determination of calcineurin activity in each condition can be made.

calcineurin [3] = assay: Radiometric calcineurin assay, basal activity in isolated CD3+/4+ T cells treated in vitro; format: cell-based, human; conditions: for inhibition of basal calcineurin activity: 5 ng/ml
Method: (§1) 40 mLs of heparinized blood was collected from the study participants. T cells were then isolated using the Prepacyte SC reagent (BioE WBP2000 St. Paul Minn.) antibody negative selection and Vitalyse (BioE KI-135) treated to eliminate remaining erythrocytes. Cells were pelleted by centrifugation, washed with 1× phosphate-buffered saline, and resuspended in RPMI 1640 containing penicillin/streptomycin antibiotics, 10% fetal calf serum, 2 mM 1-glutamine, 25 mM glucose, and 1 mM sodium pyruvate.
(§2) Calcineurin activity was determined using an in vitro assay as described in Fruman et al, Methods in Enzymology 9, 146-154 (1996) and Lea et al., J Am Soc Nephrol 13, 1750-1756 (2002), both of which are incorporated herein by reference in their entireties. Following treatment, isolated lymphocytes were pelleted and then re-suspended in calcineurin buffer ([…], 250 μM KCl, 10 mg/ml BSA, 5 mg/ml DTT, pH 7.5). Cells were then lysed by three cycles of freeze-thawing in liquid nitrogen and a 37° C. water bath. The concentration of harvested proteins was determined by the BCA method (Pierce Biotechnology, Rockford, Ill.) and then […] of sample was incubated with equal volumes of calcineurin reaction buffer (100 nM calmodulin, 0.1 mM CaCl, 25 μgs calyculin, 3 μg cold RII peptide) and 30 γ^32P[ATP]-labeled RII peptide substrate.
(§3) The reaction was allowed to proceed for 10 minutes, and then 10 mgs/ml charcoal/TCA solution was added to each sample to stop the reaction. Finally, samples were passed through millipore filtration buckets, scintillation fluid added, and the amount of released phosphates read in an automated counter. Reactions were performed in triplicate and final data for subjects were calculated as the mean of triplicate samples minus control reactions to normalize for background.
To ensure that calcineurin activity was measured in a uniform population of cells, experiments were performed in isolated lymphocytes that were enriched for CD3^+/4^+ T cells using erythrocyte lysis, gradient centrifugation, and Prepacyte SC reagent (BioE, St. Paul Minn.).
First, T cells were isolated from control subjects and were then treated in vitro with vehicle (DMSO) or 5 ng/ml tacrolimus for 15 minutes.

calcineurin [4] = assay: Radiometric calcineurin assay in isolated T cells after T cell receptor stimulation with anti-CD3/anti-CD28 antibodies, with or without inhibitor pre-treatment; format: cell-based, human; conditions: for effect of pre-treatment on anti-CD3/anti-CD28-stimulated calcineurin activity (words): control T cells, tacrolimus/FK506 5 ng/ml, cyclosporine A printed as 500 ng/ml, 5 μg/ml or 5 mg/ml
Method: as §1, §2, §3
T cell isolates were stimulated for 15 minutes with multiple agents including calcium ionophore, phorbal myristate […] (PMA), and anti-CD3/CD28 antibodies. […] Next, T cells were pre-treated for 30 minutes with cyclosporine (5 mg/ml) or FK506 (5 ng/ml) and then CD3/CD28-mediated stimulation was measured.

[5] = human, in vivo
Method: Stimulation of calcineurin activity was also determined for caucasian and African-American transplant patients. […] Trough blood levels of FK506 for both caucasian and African-American transplant patients were obtained at the time of T cell isolation.

In the case of `O=C(O)CN(CCOCCOCCN(CC(=O)O)CC(=O)O)CC(=O)O` [EGTA], the “effect on dephosphorylation by recombinant calcineurin” value (recombinant calcineurin) is reported as “significantly reduced”.

With “anti-CD3: anti-CD3 (Muromonab, 10 μg/ml) antibodies for TCR-specific activation without co-stimulation” the “stimulation of calcineurin activity” value (calcineurin [1]; control PBMCs) was “observed only in control PBMCs”.

For `NC(=O)CC[C@@H]1NC(=O)[C@H](Cc2ccccc2)NC(=O)[C@H](Cc2ccc(O)cc2)NC(=O)[C@@H](N)CSSC[C@@H](C(=O)N2CCC[C@H]2C(=O)N[C@@H](CCCN=C(N)N)C(=O)NCC(N)=O)NC(=O)[C@H](CC(N)=O)NC1=O` [Arginine vasopressin (AVP), arginine vasopressin], the “stimulation of calcineurin activity” value (calcineurin [2]) was “significantly stimulated calcineurin activity”.

For `CCCCCCCCCCCCCC(=O)O[C@@H]1[C@@H](C)[C@@]2(O)[C@@H](C=C(CO)C[C@]3(O)C(=O)C(C)=C[C@@H]23)[C@@H]2C(C)(C)[C@]12OC(C)=O` [PMA, phorbol myristate acetate], the “stimulation of calcineurin activity” value (calcineurin [1]; control PBMCs) was “stimulated calcineurin activity in control cells”, the “stimulation of calcineurin activity” value (calcineurin [1]; transplant recipient-derived PBMCs) was “not in the transplant recipient-derived PBMC samples” and the “stimulation of calcineurin activity” value (calcineurin [2]) was “significantly stimulated calcineurin activity”.

In the case of `C=CC[C@@H]1/C=C(\C)C[C@H](C)C[C@H](OC)[C@H]2O[C@@](O)(C(=O)C(=O)N3CCCC[C@H]3C(=O)O[C@H](/C(C)=C/[C@@H]3CC[C@@H](O)[C@H](OC)C3)[C@H](C)[C@@H](O)CC1=O)[C@H](C)C[C@@H]2OC` [tacrolimus], the “effect on basal calcineurin activity” value (calcineurin [3]; control T cells (N=81), 5.0 ng/ml in vitro, p<0.001) is reported as “significantly decreased calcineurin activity”, the “calcineurin activity after in vitro tacrolimus” value (calcineurin [3]; control subjects' T cells, 5 ng/ml for 15 minutes, vehicle (DMSO) 913±6) is reported as 662±6 fmole/μg protein/min and the “inhibition of basal calcineurin activity” value (calcineurin [3]; female control subjects) is reported as 30±4%. The “inhibition of basal calcineurin activity” value (calcineurin [3]; male control subjects) was 27±4%, the “effect of pre-treatment on anti-CD3/CD28-stimulated calcineurin activity” value (calcineurin [4]; African-American control subjects, listed as FK506) was “neither cyclosporine A nor FK506 significantly reduced calcineurin activity; also recorded: neither cyclosporine nor FK506 pre-treatment inhibited calcineurin activity” and the “effect of pre-treatment on anti-CD3/CD28-stimulated calcineurin activity” value (calcineurin [4]; caucasian control subjects) was “inhibited”. For the same molecule, the “effect of pre-treatment on anti-CD3/anti-CD28-stimulated calcineurin activity (words)” value (calcineurin [4]) was “blocked the CD3/CD28 stimulation; also recorded: blocked the rise in calcineurin activity; also recorded: effective at blocking the induction”, the “effect of pre-treatment on anti-CD3/anti-CD28-stimulated calcineurin activity (words)” value (calcineurin [4]; listed as FK506) was “significantly reduced CD3/CD28-mediated calcineurin activity; also recorded: blocked stimulation” and the “effect on fold change in calcineurin activity with anti-CD3 stimulation” value (calcineurin [1]; control PBMCs incubated with increasing amounts before anti-CD3 stimulation) was “inhibited by tacrolimus in a dose-dependent fashion; also recorded: inhibited in control PBMCs in a dose-responsive manner”. For the same molecule, the “effect of pre-treatment on PMA-stimulated calcineurin activity” value (calcineurin [2]) was “blocked stimulation by PMA” and the mean plasma level [5] was 0.0114 µg/mL.
